# Results reported in PMC6791383, “A side-by-side evaluation of [^18F]FDOPA enantiomers for non-invasive detection of neuroendocrine tumors by positron emission tomography” (Oncotarget, 2019).
# Key:
# PC12 xenografts = test: Ex vivo biodistribution in NSG mice bearing PC12 xenografts; settings: for Biodistribution, Bladder / Biodistribution, Blood / Biodistribution, Bone / Biodistribution, Brain / Biodistribution, Fat / Biodistribution, Heart / Biodistribution, Kidneys / Biodistribution, Liver / Biodistribution, Lungs / Biodistribution, Muscle / Biodistribution, Pancreas / Biodistribution, Small Intestines / Biodistribution, Spleen / Biodistribution, Stomach / Biodistribution, Tumor: PC12 xenograft NSG mice, 1.5MBq i.v.
# Method: (§1) All animal studies were carried out according to regulations set forth and approved by the Johns Hopkins Animal Care and Use Committee. Female, 6- to 8-weeks-old immunodeficient NOD scid gamma (NSG) mice were subcutaneously inoculated with 1 million PC12, STC-1 or COLO-320 cells in […] of Hank’s balanced salt solution in the top flank. Tumors of 4–6 mm in diameter (typically 14-21 days post inoculation) were utilized for in vivo imaging or ex vivo biodistribution studies.
# (§2) Mice (n=5 per group) were intravenously injected with 1.5MBq (40μCi) of each tracer in 150μL of saline. Ex vivo biodistribution studies were performed at 30min and 120min time points after tracer administration. Blood, liver, spleen, heart, lungs, kidneys, small intestines, stomach, muscle, fat, bone, bladder, brain and tumor tissues were retrieved, weighed, and counted in an automated gamma counter (1282 Compugamma CS). Percentage injected dose per gram (%ID/g) values were calculated based on normalization to external standards, counted in triplicate, and accounted for signal-decay correction.
# COLO-320 xenografts [1] = test: Ex vivo biodistribution in NSG mice bearing COLO-320 xenografts; settings: for Biodistribution, Bladder / Biodistribution, Blood / Biodistribution, Bone / Biodistribution, Brain / Biodistribution, Fat / Biodistribution, Heart / Biodistribution, Kidneys / Biodistribution, Liver / Biodistribution, Lungs / Biodistribution, Muscle / Biodistribution, Pancreas / Biodistribution, Small Intestines / Biodistribution, Spleen / Biodistribution, Stomach / Biodistribution, Tumor: COLO-320 xenograft NSG mice, 1.5MBq i.v.
# Method: as §1, §2
# STC-1 cells = test: In vitro uptake (binding) assay in STC-1 cells; type: cell-based; settings: 30mins incubation, 1 million cells, % incubated dose/million cells
# Method: (§3) Both [^18F]FDOPA enantiomers were initially assessed in vitro in all NET cells.
# (§4) In vitro binding assays were carried out, in triplicate, in PBS with 0.5% FBS, for 30mins at ambient temperatures using 1 million cells and repeated three times. Blocking studies were carried out using 10meq of the commercial LAT1 inhibitor, 2-Aminobicyclo[2.2.1]heptane-2-carboxylic acid (TOCRIS, MN, USA). Following incubation with each tracer, cells were rinsed three times with cold PBS prior to being counted on an automated gamma counter (1282 Compugamma CS; Pharmacia/LKBNuclear, Inc.) along with external standards. Obtained counts were converted into percentage incubated dose per million cells based on normalization to external standards. Experiments were performed in triplicate and repeated three times.
# COLO-320 xenografts [2] = test: In vivo PET-CT quantitative image analysis, COLO-320 xenografts; settings: COLO-320 tumors, NSG mice, 9MBq
# Method: as §1
# (§5) Mice (n=4) were injected with 9MBq (250μCi) of each tracer in 150μL of saline intravenously and anesthetized with 3% isoflurane prior to being placed on the scanner bed. Mice were kept warm with an external light source and maintained at 1% isoflurane levels while being scanned. PET imaging (2 beds; 10 min per bed) was carried out using an ARGUS small-animal PET/CT scanner (Sedecal). A CT scan (512 projections) was obtained at the end of each PET scan for anatomical co-registration. For in vivo blocking experiments, mice were injected with 10meq of LAT1 inhibitor. PET data were reconstructed using the 2-dimensional ordered subsets-expectation maximization algorithm (2D-OSEM) and corrected for dead time and radioactive decay. Data visualization and image generation were carried out using Amira 2019.1 (ThermoFisher Scientific).
# (§6) Quantitative in vivo image analysis was carried out in AMIDE (SourceForge) 1.0.4 utilizing ellipsoid region-of-interest volume integrations with 3 slices entailing a depth of 1.9 mm per slice. The %ID per cc values were calculated based on a calibration factor obtained from a phantom (known radioactive quantity in a known volume).
# TGP52 cells = test: In vitro uptake (binding) assay in TGP52 cells; type: cell-based; settings: 30mins incubation, 1 million cells, % incubated dose/million cells
# Method: as §3, §4
# [3] = system: NET xenografts (STC-1, PC12, COLO-320); test: Ex vivo biodistribution, across all NET mouse models; type: in vivo, mice; settings: for brain accumulation, average in all NET mice: average over STC-1, COLO-320 and PC12 mice; for retention in small intestines, fold lower than L-[^18F]FDOPA: all NET models
# Method: as §1, §2
# PC12 cells = test: In vitro uptake (binding) assay in PC12 cells; type: cell-based; settings: 30mins incubation, 1 million cells
# Method: as §3, §4
# STC-1 xenografts = test: In vivo PET-CT quantitative image analysis, STC-1 xenografts; settings: STC-1 tumors, NSG mice, 9MBq
# Method: as §1, §5, §6
smiles,measurement,setting,value
"N[C@H](Cc1cc(O)c(O)cc1[18F])C(=O)O [D-[^18F]FDOPA, 3,4-dihydroxy-6-[^18F]fluoro-D-phenylalanine]","pancreatic retention, fold lower compared to L-[^18F]FDOPA","PC12 xenografts; PC12 mice, 120min p.i.",~11 fold
same,"Biodistribution, Bladder",PC12 xenografts; 30min p.i.,3.96 %ID/g
same,"Biodistribution, Blood",PC12 xenografts; 30min p.i.,2.52 %ID/g
same,"Biodistribution, Bone",PC12 xenografts; 30min p.i.,2.71 %ID/g
same,"Biodistribution, Brain",PC12 xenografts; 30min p.i.,0.19 %ID/g
same,"Biodistribution, Fat",PC12 xenografts; 30min p.i.,0.28 %ID/g
same,"Biodistribution, Heart",PC12 xenografts; 30min p.i.,1.28 %ID/g
same,"Biodistribution, Kidneys",PC12 xenografts; 30min p.i.,5.30 %ID/g
same,"Biodistribution, Liver",PC12 xenografts; 30min p.i.,3.05 %ID/g
same,"Biodistribution, Lungs",PC12 xenografts; 30min p.i.,3.53 %ID/g
same,"Biodistribution, Muscle",PC12 xenografts; 30min p.i.,0.79 %ID/g
same,"Biodistribution, Pancreas",PC12 xenografts; 30min p.i.,28.22 %ID/g
same,"Biodistribution, Small Intestines",PC12 xenografts; 30min p.i.,3.76 %ID/g
same,"Biodistribution, Spleen",PC12 xenografts; 30min p.i.,3.99 %ID/g
same,"Biodistribution, Stomach",PC12 xenografts; 30min p.i.,2.52 %ID/g
same,"Biodistribution, Tumor",PC12 xenografts; 30min p.i.,2.96 %ID/g
same,"Biodistribution, Bladder",PC12 xenografts; 120min p.i.,5.93 %ID/g
same,"Biodistribution, Blood",PC12 xenografts; 120min p.i.,0.48 %ID/g
same,"Biodistribution, Bone",PC12 xenografts; 120min p.i.,4.84 %ID/g
same,"Biodistribution, Brain",PC12 xenografts; 120min p.i.,0.23 %ID/g
same,"Biodistribution, Fat",PC12 xenografts; 120min p.i.,0.34 %ID/g
same,"Biodistribution, Heart",PC12 xenografts; 120min p.i.,0.84 %ID/g
same,"Biodistribution, Kidneys",PC12 xenografts; 120min p.i.,1.23 %ID/g
same,"Biodistribution, Liver",PC12 xenografts; 120min p.i.,0.73 %ID/g
same,"Biodistribution, Lungs",PC12 xenografts; 120min p.i.,2.04 %ID/g
same,"Biodistribution, Muscle",PC12 xenografts; 120min p.i.,1.02 %ID/g
same,"Biodistribution, Pancreas",PC12 xenografts; 120min p.i.,3.42 %ID/g
same,"Biodistribution, Small Intestines",PC12 xenografts; 120min p.i.,1.90 %ID/g
same,"Biodistribution, Spleen",PC12 xenografts; 120min p.i.,1.86 %ID/g
same,"Biodistribution, Stomach",PC12 xenografts; 120min p.i.,1.36 %ID/g
same,"Biodistribution, Tumor",PC12 xenografts; 120min p.i.,1.44 %ID/g
same,"pancreatic retention, fold lower compared to L-[^18F]FDOPA","COLO-320 xenografts [1]; COLO-320 mice, 120min p.i.",12 fold
same,"Biodistribution, Bladder",COLO-320 xenografts [1]; 30min p.i.,3.81 %ID/g
same,"Biodistribution, Blood",COLO-320 xenografts [1]; 30min p.i.,2.58 %ID/g
same,"Biodistribution, Bone",COLO-320 xenografts [1]; 30min p.i.,3.28 %ID/g
same,"Biodistribution, Brain",COLO-320 xenografts [1]; 30min p.i.,0.19 %ID/g
same,"Biodistribution, Fat",COLO-320 xenografts [1]; 30min p.i.,0.31 %ID/g
same,"Biodistribution, Heart",COLO-320 xenografts [1]; 30min p.i.,1.57 %ID/g
same,"Biodistribution, Kidneys",COLO-320 xenografts [1]; 30min p.i.,7.05 %ID/g
same,"Biodistribution, Liver",COLO-320 xenografts [1]; 30min p.i.,2.65 %ID/g
same,"Biodistribution, Lungs",COLO-320 xenografts [1]; 30min p.i.,3.60 %ID/g
same,"Biodistribution, Muscle",COLO-320 xenografts [1]; 30min p.i.,0.89 %ID/g
same,"Biodistribution, Pancreas",COLO-320 xenografts [1]; 30min p.i.,34.93 %ID/g
same,"Biodistribution, Small Intestines",COLO-320 xenografts [1]; 30min p.i.,3.89 %ID/g
same,"Biodistribution, Spleen",COLO-320 xenografts [1]; 30min p.i.,4.77 %ID/g
same,"Biodistribution, Stomach",COLO-320 xenografts [1]; 30min p.i.,2.48 %ID/g
same,"Biodistribution, Tumor",COLO-320 xenografts [1]; 30min p.i.,3.61 %ID/g
same,"Biodistribution, Bladder",COLO-320 xenografts [1]; 120min p.i.,3.68 %ID/g
same,"Biodistribution, Blood",COLO-320 xenografts [1]; 120min p.i.,0.51 %ID/g
same,"Biodistribution, Bone",COLO-320 xenografts [1]; 120min p.i.,4.10 %ID/g
same,"Biodistribution, Brain",COLO-320 xenografts [1]; 120min p.i.,0.19 %ID/g
same,"Biodistribution, Fat",COLO-320 xenografts [1]; 120min p.i.,0.29 %ID/g
same,"Biodistribution, Heart",COLO-320 xenografts [1]; 120min p.i.,0.80 %ID/g
same,"Biodistribution, Kidneys",COLO-320 xenografts [1]; 120min p.i.,1.44 %ID/g
same,"Biodistribution, Liver",COLO-320 xenografts [1]; 120min p.i.,0.54 %ID/g
same,"Biodistribution, Lungs",COLO-320 xenografts [1]; 120min p.i.,1.52 %ID/g
same,"Biodistribution, Muscle",COLO-320 xenografts [1]; 120min p.i.,1.12 %ID/g
same,"Biodistribution, Pancreas",COLO-320 xenografts [1]; 120min p.i.,3.12 %ID/g
same,"Biodistribution, Small Intestines",COLO-320 xenografts [1]; 120min p.i.,1.46 %ID/g
same,"Biodistribution, Spleen",COLO-320 xenografts [1]; 120min p.i.,1.67 %ID/g
same,"Biodistribution, Stomach",COLO-320 xenografts [1]; 120min p.i.,0.99 %ID/g
same,"Biodistribution, Tumor",COLO-320 xenografts [1]; 120min p.i.,3.72 %ID/g
same,in vitro uptake,STC-1 cells,2.41±0.17%
same,"tumor uptake, quantitative PET image analysis",COLO-320 xenografts [2]; 30min post i.v. injection,7.20±0.35 %ID/cc
same,"tumor uptake, quantitative PET image analysis",COLO-320 xenografts [2]; 120min post i.v. injection,6.93±0.80 %ID/cc
same,in vitro uptake,TGP52 cells,3.18±0.19%
same,"brain accumulation, average in all NET mice",[3]; 30min p.i.,0.31±0.05 %ID/g
same,"brain accumulation, average in all NET mice",[3]; 120min p.i.,0.34±0.08 %ID/g
same,"hepatic retention, fold lower than L-[^18F]FDOPA",[3]; NET models,up to 4 fold
same,"renal retention, fold lower than L-[^18F]FDOPA",[3]; NET models,up to 4 fold
same,"retention in small intestines, fold lower than L-[^18F]FDOPA",[3]; 30min,up to 4 fold
same,"retention in small intestines, fold lower than L-[^18F]FDOPA",[3]; 120min p.i.,up to 7 fold
same,in vitro uptake,PC12 cells,2.97±0.24 % (incubated dose/million cells)
same,"tumor uptake, quantitative PET image analysis",STC-1 xenografts; 30min post i.v. injection,12.01±1.61 %ID/cc
same,"tumor uptake, quantitative PET image analysis",STC-1 xenografts; 120min post i.v. injection,3.34±0.32 %ID/cc
